Where two headings read alike, the source gives them in different places.
How the values were obtained:
P. aeruginosa H187 = type: cell-based, Pseudomonas aeruginosa; conditions: for Antibiotic activity (Table 11, ring analogs): P. aeruginosa H187, unit from Table 10
Procedure, shortened: (§1)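 Liquid-broth microdilution: overnight LB cultures at 37 °C, diluted to a final inoculum of 5×10^5 CFU/mL with serial peptide dilutions, incubated overnight at 37 °C. MIC (μg/ml) is the lowest concentration that inhibited growth. Therapeutic index is the concentration giving complete hemolysis at 4 h divided by the MIC.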

P. aeruginosa H188 = type: cell-based, Pseudomonas aeruginosa; conditions: for Antibiotic activity (Table 11, ring analogs): P. aeruginosa H188, unit from Table 10
Procedure, shortened: (§2)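 Antimicrobial activity is measured by a liquid-broth assay in LB at 37 °C overnight, starting from 5×10^5 CFU/mL. Values are minimal inhibitory concentrations, i.e. the lowest concentration that stops growth.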

E. coli UB1005 = type: cell-based, Escherichia coli; conditions: for Antibiotic activity (Table 11, ring analogs): E. coli UB1005, unit from Table 10
Procedure, shortened: as §2

E. coli DC2 = type: cell-based, Escherichia coli; conditions: for Antibiotic activity (Table 11, ring analogs): E. coli DC2, unit from Table 10
Procedure, shortened: as §1

E. coli SC9251 = assay: MIC, liquid-broth microtitre dilution; type: cell-based, Escherichia coli; conditions: unit from Table 10
Text: (§3) The following bacterial strains were utilized: Escherichia coli UB1005 (wt) and its antibiotic supersusceptible derivative DC2 (Clark, 1984); Excherichia coli SC9251 and its polymixin B rasistant mutant pmrA SC9252 (Peterson, et al., 1987) Pseudomonas aeruginosa H187 (wt) (Angus, et al., 1987) and its antibiotic-sensitive derivative H188 (Zimmerman, W, Antimicrob. Agents Chemother. 18: 94-100, 1980); methicillin sensitive Staphylococcus aureus K147 (Kreiswirth, et al., 1983); Staphylococcus aureus SAP0017, a methicillin resistant clinical isolate from Dr. A. Chow (University of British Columia); Bacillus subtilis, an environmental wt lab strain. Enterococcus faecalis are ATCC 29212 cells and Staphylococcus epidermidis was a clinical isolate from Dr. D. Speert (University of British Columbia). Antifungal activity was tested using a clinical lab isolate of Candida albicans. Salmonella typhinurium C57 and C610 (Fields, P.I., et al., Science 243: 1059-1062 (1989) Corynebacterium xerosis was an environmental isolate (University of British Columbia).
(§4) It is now apparent that agar-based assays severely underestimate antifungal activity as well as activity against gram negative microorganisms (Kondejewski, et al., 1996). Consequently, in the studies reported herein, a liquid-broth method was used to measure the antibiotic properties of the peptides. […] Briefly, cells were grown overnight at 37° C. in LB and diluted in the same medium. Serial dilutions of antibiotics were added to the microtitre plates in a volume of 100 μL followed by 10 μL of bacteria to give a final inoculum of 5×10^5 CFU/mL. Plates were incubated at 37° C. overnight and MICs determined as the lowest antibiotic concentration that inhibited growth.

E. coli SC9252 = assay: MIC, liquid-broth microtitre dilution; type: cell-based, Escherichia coli; conditions: unit from Table 10
Text: as §3, §4

human erythrocytes = assay: Hemolytic activity; type: cell-based
Experimental: Serial dilutions of the peptides in saline were prepared in round bottom microtitre plates using 100 μL volumes. Red blood cells were diluted with saline to 1/25 packed volume of cells and 50 μL added to each well. Plates were incubated with rocking at 37° C., and the concentration required for complete lysis determined visually after 4 h.

[1] = Displacement of dansyl-polymyxin from LPS; type: binding, P. aeruginosa
Procedure, shortened: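 Peptides titrated into 3 μg/mL P. aeruginosa LPS with 2.5 μM dansyl-polymyxin (~90% site saturation) in 5 mM sodium HEPES, pH 7.0; fluorescence decrease recorded. I50 (50% probe displacement) taken from the x-intercept of a double-reciprocal plot of percent inhibition versus inhibitor concentration.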

[2] = tested on: gram negative microorganisms; type: cell-based; conditions: average activity calculated from Table II
Text: as §3, §4
(§5) The results from antimicrobial and hemolytic assays are combined to provide a “Therapeutic Index” (TI) for each peptide with respect to individual microorganisms. As reported herein, the TI is calculated as the hemolytic activity divided by the antimicrobial activity. The TI thus is a measure of specificity of the particular peptide for microbial membranes as opposed to human blood cell membranes. In the present studies, antimicrobial activities are reported as minimum inhibitory concentrations (MIC)—the lowest concentration of peptide (μg/ml) found to inhibit growth of the particular microbe. Hemolytic activity is reported as the concentration of peptide that effected complete lysis of blood cells after four hours. Thus, in the context of the present invention high TI values indicate microbial specificity and relative lack of toxicity.

[3] = tested on: gram positive microorganisms; type: cell-based; conditions: for Antibiotic activity, gram-positive: average activity calculated from Table II
Text: as §3, §4, §5

yeast = assay: Antibiotic activity, yeast; type: cell-based; conditions: average activity calculated from Table II
Text: as §3, §4, §5

S. typhinurium C587 = type: cell-based, Salmonella typhinurium
Procedure, shortened: as §2

S. typhinurium C610 = type: cell-based, Salmonella typhinurium
Procedure, shortened: as §2

S. aureus K147 = type: cell-based, Staphylococcus aureus
Procedure, shortened: (§6)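 MIC read-out, μg/ml, lowest peptide concentration with no growth after overnight incubation at 37 °C in LB liquid broth. Inoculum 5×10^5 CFU/mL from overnight cultures. Therapeutic index = concentration giving complete blood-cell lysis at 4 h divided by MIC.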

S. aureus SAP0017 = type: cell-based, Staphylococcus aureus
Procedure, shortened: as §6

S. epidermidis = type: cell-based, Staphylococcus epidermidis
Procedure, shortened: (§7)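 Liquid-broth microdilution: overnight LB cultures diluted and added to serial peptide dilutions at final 5×10^5 CFU/mL, incubated overnight at 37 °C. MIC is the lowest concentration inhibiting growth; C. albicans a clinical isolate, S. epidermidis clinical, C. xerosis environmental.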

B. subtilis = type: cell-based, Bacillus subtilis
Procedure, shortened: as §7

E. faecalis = type: cell-based, Enterococcus faecalis
Procedure, shortened: as §2

C. xeroses = type: cell-based, Corynebacterium xerosis
Procedure, shortened: as §7

C. Albicans = type: cell-based, Candida albicans
Procedure, shortened: as §7

Acholeplasma laidlawii = type: cell-based
Text: According to another feature of the invention, GS14, which is apparently an unlikely antibacterial agent, is useful against mycoplasma infection. […] One use of such a compound is inclusion in tissue culture media, where mycoplasma contamination can pose serious problems in industrial applications of cell culture. […] Such concentrations can be determined according to standard methods known in the art.

[4] = Table 10, read-out: LPS binding activity: peptide concentration to displace 50% of dansyl-polymyxin from LPS

Compound | Antibiotic activity (Table 11, ring analogs) (P. aeruginosa H187) [μg/ml] | Antibiotic activity (Table 11, ring analogs) (P. aeruginosa H188) [μg/ml] | Antibiotic activity (Table 11, ring analogs) (E. coli UB1005) [μg/ml] | Antibiotic activity (Table 11, ring analogs) (E. coli DC2) [μg/ml] | Antibiotic activity (Table 11, ring analogs) (E. coli SC9251) [μg/ml] | Antibiotic activity (Table 11, ring analogs) (E. coli SC9252) [μg/ml] | Hemolytic activity (human erythrocytes) [µg/mL] | IC50 [1, 4] [µM] | Antibiotic activity, gram-negative [2] [µg/mL] | Antibiotic activity, gram-positive [3] [µg/mL] | Antibiotic activity, yeast (yeast) [µg/mL] | also measured
CC(C)C[C@@H]1NC(=O)[C@H](CCCCN)NC(=O)[C@H](C(C)C)NC(=O)[C@@H]2CCCN2C(=O)[C@@H](Cc2ccccc2)NC(=O)[C@H](CC(C)C)NC(=O)[C@H](CCCCN)NC(=O)[C@H](C(C)C)NC(=O)[C@H](CCCCN)NC(=O)[C@@H]2CCCN2C(=O)[C@@H](Cc2ccccc2)NC(=O)[C@H](CCCCN)NC1=O [GS12F] | 38 | 8 | 17 | 9 | 11 | 14 | 400 | 127 | 16 | 110 | 13 | –
CC(C)C[C@@H]1NC(=O)[C@H](CCCCN)NC(=O)[C@@H]2CCCN2C(=O)[C@@H](Cc2ccc(O)cc2)NC(=O)[C@H](CCCCN)NC(=O)[C@H](C(C)C)NC(=O)[C@H](CCCCN)NC(=O)[C@H](CC(C)C)NC(=O)[C@@H]2CCCN2C(=O)[C@@H](Cc2ccc(O)cc2)NC(=O)[C@H](C(C)C)NC(=O)[C@H](CCCCN)NC1=O [GS12LV] | 58 | 10 | 21 | 14 | 22 | 25 | 92 | 33 | 25 | 240 | 50 | –
CC(C)C[C@@H]1NC(=O)[C@H](CCCCN)NC(=O)[C@H](C(C)C)NC(=O)[C@@H]2CCCN2C(=O)[C@@H](Cc2ccc(O)cc2)NC(=O)[C@H](CC(C)C)NC(=O)[C@H](CCCCN)NC(=O)[C@H](C(C)C)NC(=O)[C@H](CCCCN)NC(=O)[C@@H]2CCCN2C(=O)[C@@H](Cc2ccc(O)cc2)NC(=O)[C@H](CCCCN)NC1=O [GS12] | 75 | 10 | 25 | 11 | 42 | 30 | 250 | 46 | 32 | 240 | 42 | Increase in LPS binding activity in comparison to shorter peptides ([1]; addition of two positive charges): approximately 6 fold
CC(C)C[C@@H]1NC(=O)[C@H](CCCCN)NC(=O)[C@H](C(C)C)NC(=O)[C@@H]2CCCN2C(=O)[C@@H](Cc2ccc(O)cc2)NC(=O)[C@H](CC(C)C)NC(=O)[C@H](CCCCN)NC(=O)[C@H](C(C)C)NC(=O)[C@H](CCCCN)NC(=O)[C@H](CC(C)C)NC(=O)[C@@H]2CCCN2C(=O)[C@@H](Cc2ccc(O)cc2)NC(=O)[C@H](C(C)C)NC(=O)[C@H](CCCCN)NC1=O [GS14] | 400 | 400 | 400 | 190 | 400 | 190 | – | – | – | – | – | Minimum Inhibitory Concentration (activity) (P. aeruginosa H187; H187): >200 µg/mL; Minimum Inhibitory Concentration (activity) (P. aeruginosa H188; H188): >200 µg/mL; Minimum Inhibitory Concentration (activity) (E. coli UB1005; UB1005): >200 µg/mL; Minimum Inhibitory Concentration (activity) (E. coli DC2; DC2): >200 µg/mL; Minimum Inhibitory Concentration (activity) (S. typhinurium C587): >200 µg/mL; Minimum Inhibitory Concentration (activity) (S. typhinurium C610): >200 µg/mL; Minimum Inhibitory Concentration (activity) (S. aureus K147): >200 µg/mL; Minimum Inhibitory Concentration (activity) (S. aureus SAP0017): >200 µg/mL; Minimum Inhibitory Concentration (activity) (S. epidermidis): 200 µg/mL; Minimum Inhibitory Concentration (activity) (B. subtilis): >200 µg/mL; Minimum Inhibitory Concentration (activity) (E. faecalis): 1.5 µg/mL; Minimum Inhibitory Concentration (activity) (C. xeroses): 9 µg/mL; Minimum Inhibitory Concentration (activity) (C. Albicans): 150 µg/mL; IC50 ([1]; read-out: LPS binding affinity: peptide concentration to displace 50% of dansyl-polymyxin B from LPS, Tables 1, 4, 7): 3 µM; MIC against four of the gram positive microorganisms tested [3]: > 200 µg/mL; MIC (Acholeplasma laidlawii): less than 30 μg/ml

— US6358921B1, “Antimicrobial peptide compositions and method” (priority 1996, dated 2002)
